According to US20230025377A1, “COMPOSITIONS AND METHODS FOR TREATING OR PREVENTING PRURITUS” (HLB THERAPEUTICS CO., LTD., priority 2020, published 2023):
Where “and” joins values, the source holds several entries; their conditions need not be identical. Equal values may be shown once. Entries after “also recorded” stand apart in the source; their conditions may differ.

Legend:
Type in all cases: cell-based, human
HMC-1 cells [1] = assay: IL-4 release in PMACI-treated HMC-1 cells (ELISA); conditions: for IL-4 release: mean ± S.E.
Experimental: (§1) Cell culture: Human Mast Cell Line (HMC-1) cells (ATCC, Manassas, Va., USA) were maintained in IMDM (Iscove's Modified Dulbecco's Media) medium (Thermo Fisher Scientific) containing 10% fetal bovine serum (FBS; Hyclone, GE Healthcare Life Sciences) and 1% penicillin-streptomycin (Sigma-Aldrich, St. Louis, Mo., USA) in a 37° C. humidified incubator with 5% CO2. The medium was changed every 2-3 days.
(§2) HMC-1 cell treatment: HMC-1 cells were seeded in 12-well plates at a density of 7×10^5 cells per well and exposed to Tβ4 (1, 1.5, 3, and 6 μg/mL) for 1 hour before treatment with phorbol 12-myristate 13-acetate plus A23187 (PMACI; 30 nM of PMA plus 1.5 μM of A23187) to induce degranulation (activation) of mast cells and incubated at 37° C. After 2.5 hours, the medium was centrifuged (Hanil, UNION 32R PLUS) for 20 minutes at 1000×g. The supernate was transferred to another tube.
(§3) Inflammatory cytokines: IL-4, IL-13, and TNF-α amounts were evaluated to determine the effects of the disclosed composition on the release of inflammatory cytokines. IL-4 and IL-13 amounts were measured using Human IL-4 (ab100570) and IL-13 (ab100553) ELISA kit (Abeam, Cambridge, Mass.) on the supernate of the culture medium. 100 μL of the sample was added to 96-plate wells, then 100 μL of Biotinylated IL-4 and IL-13 detection antibody were added and incubated at room temperature for 1 hour. 100 μL of HRP-streptavidin solution was added and incubated at room temperature for 45 minutes. 100 μL of TMB one step substrate reagent was added and incubated at room temperature for 30 minutes. Washing was performed between each step and incubated on a shaker. Finally, 50 μL of stop solution was added without washing. Absorbance was measured at 450 nm with a spectrophotometer (Biotek, PowerWave XS2, Winooski, Vt., USA).

HMC-1 cells [2] = assay: Prostaglandin E2 (PGE2) release in PMACI-treated HMC-1 cells (ELISA); conditions: for PGE2 release: mean ± S.E.
Experimental: as §1, §2
The prostaglandin E2 (PGE2) amount was measured using a human PGE2 ELISA kit (Abeam, Cambridge, Mass.) on the supernate of the culture medium. 100 μL of the sample was added to 96-plate wells, then 50 μL of PGE2 Alkaline Phosphatase Conjugate was added. 50 ul of PGE2 Antibody was added and incubated on a shaker at room temperature for 45 minutes. 200 μL of pNPP substrate solution was added and incubated at 37° C. for 30 minutes. 90 μL of Substrate reagent was added and incubated at room temperature for 45 minutes. Washing was performed between each step. 50 μL of stop solution was added without washing. Absorbance was measured at 405 nm with a spectrophotometer (Biotek, PowerWave XS2, Winooski, Vt., USA).

HMC-1 cells [3] = assay: Leukotrien B4 (LTB4) release in PMACI-treated HMC-1 cells (ELISA); conditions: for Leukotrien B4 release: mean ± S.E.
Experimental: as §1, §2
(§4) The leukotriene B4 amount was measured using the LTB4 (Leukotriene B4) ELISA kit (MybioSource, San Diego, Calif., USA) on the supernate of the culture medium. 50 μL of the sample was added to 96-plate wells, then 50 μL of Biotinylated Detection Ab working solution was added and incubated at 37° C. for 45 minutes. 100 μL of HRP Conjugate working solution was added and incubated at 37° C. for 30 minutes. 90 μL of Substrate reagent was added and incubated at 37° C. for 15 minutes. Washing was performed between each step. 50 μL of stop solution was added without washing. Absorbance was measured at 450 nm with a spectrophotometer (Biotek, PowerWave XS2, Winooski, Vt., USA).

HMC-1 cells [4] = assay: Histamine release in PMACI-treated HMC-1 cells (ELISA); conditions: for Histamine release: mean ± S.E.
Experimental: as §1, §2
as §4, with “Allergic reaction factors: Histamine (HIS), Leukotrien” for “The leukotriene”, “(LTB4), and Prostaglandin E2 (PGE2) amounts were evaluated to determine the effects of the disclosed composition on the release of allergic reaction factors. Histamine levels were” for “amount was”, “HIS (Histamine)” for “LTB4 (Leukotriene B4)”, “(Elabscience, Huston, Tex.,” for “(MybioSource, San Diego, Calif.,”

HMC-1 cells [5] = assay: TNF-α release in PMACI-treated HMC-1 cells (ELISA); conditions: for TNF-α release: PMACI-treated HMC-1 cells, mean ± S.E.
Experimental: as §1, §2
The TNF-α amount was measured using a human TNF-alpha ELISA kit (Abeam, Cambridge, Mass.) on the supernate of the culture medium. 100 μL of the sample was added to 96-plate wells, then 50 μL of Biotinylated TNF alpha detection antibody was added and incubated at room temperature for 3 hours. 100 μL of HRP-streptavidin solution was added and incubated at room temperature for 30 minutes. 100 μL of Chromogen TMB substrate solution was added and incubated at room temperature of the light-shielding state for 20 minutes. Washing was performed between each step and incubated on a shaker. 50 μL of stop solution was added without washing. Absorbance was measured at 450 nm with a spectrophotometer (Biotek, PowerWave XS2, Winooski, Vt., USA).

HMC-1 cells [6] = assay: IL-13 release in PMACI-treated HMC-1 cells (ELISA); conditions: for IL-13 release: PMACI-treated HMC-1 cells, mean ± S.E.
Experimental: as §1, §2, §3

[7] = Tβ4 1 μg/ml, PMACI-treated HMC-1 cells
[8] = Tβ4 1.5 μg/ml, PMACI-treated HMC-1 cells
[9] = Tβ4 3 μg/ml, PMACI-treated HMC-1 cells
[10] = Tβ4 6 μg/ml, PMACI-treated HMC-1 cells

Question: What does the source list for “thymosin beta 4 (SDKPDMAEIEKFDKSKLKKTETQEKNPLPSKETIEQEKQAGES; Thymosin beta-4; UniProt P62328 2-44, looked up) [Tβ4, human protein; polypeptide composed of 43 amino acids having 4.9 kDa]”?
Answer: Tβ4 concentration with inhibitory effect on IL-4 release (HMC-1 cells [1]; PMACI-treated HMC-1 cells): above 1.5 μg/ml; IL-4 release (HMC-1 cells [1]; [7]): 88.27 ± 10.18 pg/mL; IL-4 release (HMC-1 cells [1]; [8]): 79.77 ± 4.27 pg/mL; IL-4 release (HMC-1 cells [1]; [9]): 65.43 ± 7.20 pg/mL; IL-4 release (HMC-1 cells [1]; [10]): 64.01 ± 3.02 pg/mL; Release level of IL-4 compared with PMACI treatment alone (HMC-1 cells [1]; Tβ4 1-6 μg/ml): significantly decreased; Amount of IL-4 released compared to PMACI alone (HMC-1 cells [1]; Tβ4 1.5, 3, and 6 μg/ml, p<0.05): significant inhibitory effect; Tβ4 concentration most effective in inhibiting the increase of PGE2 release (HMC-1 cells [2]; PMACI-treated HMC-1 cells): 3 µg/mL; Tβ4 concentration with inhibitory effect on PGE2 release (HMC-1 cells [2]; PMACI-treated HMC-1 cells): above 3 μg/ml; PGE2 release (HMC-1 cells [2]; [8]): 97.43 ± 2.56 pg/mL; PGE2 release (HMC-1 cells [2]; [9]): 94.96 ± 0.87 pg/mL; Amount of PGE2 released compared to PMACI alone (HMC-1 cells [2]; Tβ4 3 μg/ml, p<0.05): significant inhibitory effect; PGE2 release (HMC-1 cells [2]; [10]): 106.00 ± 3.13 pg/mL; Release level of PGE2 compared with PMACI treatment alone (HMC-1 cells [2]; Tβ4 1-6 μg/ml): significantly decreased; Tβ4 concentration most effective in inhibiting the increase of LTB4 release (HMC-1 cells [3]; PMACI-treated HMC-1 cells): 1.5 µg/mL and 3 µg/mL; Tβ4 concentration with inhibitory effect on LTB4 release (HMC-1 cells [3]; PMACI-treated HMC-1 cells): above 1.5 μg/ml; Leukotrien B4 release (HMC-1 cells [3]; [8]): 29.94 ± 1.97 pg/mL; Leukotrien B4 release (HMC-1 cells [3]; [9]): 28.91 ± 2.10 pg/mL; Leukotrien B4 release (HMC-1 cells [3]; [10]): 32.06 ± 2.44 pg/mL; Release level of LTB4 compared with PMACI treatment alone (HMC-1 cells [3]; Tβ4 1-6 μg/ml): significantly decreased; Amount of LTB4 released compared to PMACI alone (HMC-1 cells [3]; Tβ4 1.5 and 3 μg/ml, p<0.05): significant inhibitory effect; Tβ4 concentration with inhibitory effect on histamine release (HMC-1 cells [4]; PMACI-treated HMC-1 cells): above 1 μg/ml; Tβ4 concentration with the best effect of suppressing the increase of HIS release (HMC-1 cells [4]; PMACI-treated HMC-1 cells): 3 µg/mL; Histamine release (HMC-1 cells [4]; [7]): 25.96 ± 0.78 pg/mL; Histamine release (HMC-1 cells [4]; [8]): 23.91 ± 0.36 pg/mL; Histamine release (HMC-1 cells [4]; [9]): 22.00 ± 1.10 pg/mL; Histamine release (HMC-1 cells [4]; [10]): 23.46 ± 0.55 pg/mL; Amount of HIS released compared to PMACI alone (HMC-1 cells [4]; Tβ4 1, 1.5, 3, 6 μg/ml (1-6 μg/ml), p<0.01): significant inhibitory effect; also recorded: significantly decreased; Amount of HIS released compared to PMACI alone (HMC-1 cells [4]; Tβ4 less than 1 μg/ml): no significant difference; TNF-α release (HMC-1 cells [5]; Tβ4 1 μg/ml): 513.77 ± 17.85 pg/mL; TNF-α release (HMC-1 cells [5]; Tβ4 1.5 μg/ml): 380.23 ± 7.97 pg/mL; Reduction of TNF-α release compared to PMACI alone (HMC-1 cells [5]; Tβ4 3 μg/ml): reduced 37.4%; TNF-α release (HMC-1 cells [5]; Tβ4 3 μg/ml): 379.42 ± 8.03 pg/mL; Reduction of TNF-α release compared to PMACI alone (HMC-1 cells [5]; Tβ4 6 μg/ml): 37.1%; TNF-α release (HMC-1 cells [5]; Tβ4 6 μg/ml): 381.46 ± 12.75 pg/mL; Amount of TNF-α released compared to PMACI alone (HMC-1 cells [5]; Tβ4 1, 1.5, 3, and 6 μg/ml (1-6 μg/ml), p<0.01): significant inhibitory effect; also recorded: significantly decreased; IL-13 release (HMC-1 cells [6]; Tβ4 1 μg/ml): 30.07 ± 2.33 pg/mL; IL-13 release (HMC-1 cells [6]; Tβ4 1.5 μg/ml): 28.52 ± 2.83 pg/mL; IL-13 release (HMC-1 cells [6]; Tβ4 3 μg/ml): 28.22 ± 2.33 pg/mL; IL-13 release (HMC-1 cells [6]; Tβ4 6 μg/ml): 26.98 ± 2.45 pg/mL; Amount of IL-13 released compared to PMACI alone (HMC-1 cells [6]; Tβ4 1, 1.5, 3, and 6 μg/ml (1-6 μg/ml), p<0.05): significant inhibitory effect; also recorded: significantly decreased
